The nature of data set [1]: Selectivity index, ratio of IC50 for rat L6 cells to IC50 for bloodstream form of Trypanosoma brucei rhodesiense STIB 900. Format: toxicity, cell-based. The note with it: read-out: Ratio IC50.
For a further data set, the system named is L6. Briefly: Cytotoxicity against rat L6 cells by Alamar Blue assay. Format: cell-based. A general note: The colour change of resazurin is a common sign of viable cells or microbes.
In data set [2] the test system is Trypanosoma brucei rhodesiense. Put plainly: Antitrypanosomal activity against bloodstream form of Trypanosoma brucei rhodesiense STIB 900 by Alamar Blue assay. The data set is classed as functional, organism-based.

As usually defined, the IC50 is the concentration needed to halve the response being measured. Regarding `C[C@H]1[C@H](C)CC(=O)O[C@]2(C)CC[C@]3(C)C(=C[C@@H](O)[C@@H]4[C@@]5(C)[C@H](O)CC(=O)C(C)(C)[C@@H]5CC[C@]43C)[C@H]12`, the selectivity ratio in data set [1] stood at 33.1. Besides, the IC50 was greater than 185 µM in the data set with L6 and 5.6 µM in data set [2].

These data come from ChEMBL document CHEMBL2417546, “Antitrypanosomal triterpenoid with an ε-lactone E-ring from Salvia urmiensis” (J Nat Prod, 2013).
